Measurements: the OligoGym collection
Values joined by “and” are separate entries in the source; they are usually repeats but may differ in a detail not shown here. Equal values may be shown once. After the bases stand the sugars from the 5' end (letter, count) and the backbone: PS all phosphorothioate, else s phosphorothioate and o phosphodiester by linkage. Methylation of C is not given here. e = 2'-O-(2-methoxyethyl) (MOE); d = 2'-deoxy (DNA)

Target: DGAT2
Conditions: ASO

Sequence | target mRNA inhibition (HepG2, 0.12 µM) | target mRNA inhibition (HepG2, 2.5 µM) | target mRNA inhibition (HepG2, 10 µM) | target mRNA inhibition (HepG2, 20 µM)
GCCTGGACAAGTCCTGCCCA (sugars e3 d14 e3, PS) | 84% | 45% and 42% | 89% | 48%
GCCTGGGAACTTCTTGCTCA (sugars e5 d10 e5, PS) | 47% |  |  | 
GCCTTGGGAAGTCTCTCATA (sugars e5 d10 e5, PS) |  | 0% | 58% | 
GCTAAGCTTATTAGGTGTCT (sugars e5 d10 e5, PS) |  | 75% and 73% | 85% and 83% | 
GCTAGGACACCTGGAGCTGC (sugars e5 d10 e5, PS) |  |  | 95% and 80% and 96% | 
GCTCAGAGACTCAGCCGCAC (sugars e5 d10 e5, PS) | 86% | 41% | 60% | 47%
GCTGAGTCTGTGCTGCA (sugars e3 d10 e4, PS) |  | 56% | 85% | 
GCTTCCTCCCACTTCAGTTT (sugars e5 d10 e5, PS) |  | 55% | 83% | 
GCTTGTACACTTCATTCTCT (sugars e5 d10 e5, PS) |  | 42% | 85% | 
GCTTGTCGAAGAGCTTCACC (sugars e5 d10 e5, PS) |  | 25% | 78% | 
GGAACTTCTTCTGGACCCAT (sugars e5 d10 e5, PS) | 36% |  |  | 
GGACCCCGGAGTAGGCGGCT (sugars e5 d10 e5, PS) |  | 30% | 82% | 
GGAGCCCTCACAGGGCCAGG (sugars e5 d10 e5, PS) | 38% |  |  | 
GGAGCTCAGAGACTCAGCCG (sugars e3 d14 e3, PS) | 81% | 17% | 53% | 25%
GGAGTTTGTGTTTCCCATTT (sugars e5 d10 e5, PS) |  | 81% and 72% | 91% and 84% | 
GGATGTGTCATTTCCCCTGG (sugars e5 d10 e5, PS) |  | 66% | 96% | 
GGCACCAGCCCCCAGGTGTC (sugars e5 d10 e5, PS) | 30% |  |  | 

Sequence | target mRNA inhibition (HepG2, 0.12 µM) | target mRNA inhibition (HepG2, 2.5 µM) | target mRNA inhibition (HepG2, 10 µM) | target mRNA inhibition (HepG2, 20 µM)
GGCATGCTTCCTCCCACTTC (sugars e5 d10 e5, PS) |  | 67% | 72% | 
GGCATGGAGCTCAGAGACTC (sugars e2 d13 e5, PS) | 77% |  |  | 
GGCCCAGATTTAGCCACCAC (sugars e5 d10 e5, PS) |  | 51% | 79% | 
GGCCCCAGGAGCCCTCCTCG (sugars e5 d10 e5, PS) | 40% |  |  | 
GGCTCAGTTCACCTCCAGGA (sugars e5 d10 e5, PS) |  | 56% | 90% | 
GGCTTGGAGTAGGGCACCAG (sugars e5 d10 e5, PS) | 56% |  |  | 
GGGAAGGATACCGCCAATGA (sugars e5 d10 e5, PS) | 57% |  |  | 
GGGAAGGTAAACTGAGGCCA (sugars e5 d10 e5, PS) | 32% |  |  | 
GGGATGATAAACACTAAGGT (sugars e5 d10 e5, PS) | 37% |  |  | 
GGGTCCTCTCCGCTGCC (sugars e3 d10 e4, PS) |  | 47% | 69% | 
GGTAAGGCCAAGGAAGTGAG (sugars e5 d10 e5, PS) |  | 66% | 80% | 
GGTCAGCAGGTTGTGTGTCT (sugars e5 d10 e5, PS) | 45% and 62% |  |  | 
GGTCAGCCTCGGCCTGACGC (sugars e5 d10 e5, PS) | 11% |  |  | 
GGTTGTGTGTCTTCACCAGC (sugars e5 d10 e5, PS) | 64% and 70% | 0% |  | 
GTAGCTGCTTTTCCACCTTG (sugars e5 d10 e5, PS) | 43% |  |  | 
GTAGGGCACCAGCCCCCAGG (sugars e5 d10 e5, PS) | 23% |  |  | 
GTCAAACCTAGGTTCAGACT (sugars e5 d10 e5, PS) |  | 68% | 87% | 
